# Data: patent US6420375B1, “Fused ring compounds, process for producing the same and use thereof” (Takeda Chemical Industries, Ltd., priority 1997, dated 2002)
# Biological target: T1, rat steroid C17-20-lyase (Rattus norvegicus, UniProt P11715)
# T1 construct: testicular microsomes were prepared by a series of centrifugation; from tissue; host or cells: testicular microsomes from 13-week old male SD rats
# T1 sequence (P11715 1-507): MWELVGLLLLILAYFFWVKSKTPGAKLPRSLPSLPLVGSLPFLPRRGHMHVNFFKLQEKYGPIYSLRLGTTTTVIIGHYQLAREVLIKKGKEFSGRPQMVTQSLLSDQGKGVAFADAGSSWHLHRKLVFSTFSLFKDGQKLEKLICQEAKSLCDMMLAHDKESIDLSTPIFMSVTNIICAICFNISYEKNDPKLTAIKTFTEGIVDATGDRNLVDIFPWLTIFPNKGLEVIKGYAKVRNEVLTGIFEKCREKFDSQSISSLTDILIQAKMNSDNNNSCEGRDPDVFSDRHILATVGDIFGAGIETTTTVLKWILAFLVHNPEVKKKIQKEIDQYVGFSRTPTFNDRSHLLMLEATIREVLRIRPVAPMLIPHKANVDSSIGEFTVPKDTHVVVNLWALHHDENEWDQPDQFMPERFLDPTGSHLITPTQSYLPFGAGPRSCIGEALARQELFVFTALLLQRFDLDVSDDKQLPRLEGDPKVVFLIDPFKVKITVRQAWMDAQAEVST
# Assay: Assay of inhibitory activity on rat steroid C17-20-lyase in vitro
# Format: biochemical
# Conditions: testicular microsomes of male SD rats; 10 nM [1,2-3H]-17α-hydroxyprogesterone, NADPH; 7 min at 37° C.; concentration reducing products (testosterone and androstenedione) by 50%
# Protocol: Assay of inhibitory activity on rat steroid C17-20-lyase in vitro
# Inhibitory activity was determined according to the method described in The Prostate, vol.26, 140-150(1995) with some modifications.
# Testes excised from 13-week old, male SD rats were homogenized, and testicular microsomes were prepared by a series of centrifugation. The microsome protein (7 μg/10 μl) was added to 10 μl of 100 mM phosphate buffer (pH 7.4) in which 10 nM (final concentration) [1,2-^3H]-17α-hydroxyprogesterone, NADPH, and test compounds were dissolved. The reaction mixture was incubated for 7 min at 37° C., terminated by addition of 40 μl of Ethyl acetate, and briefly centrifuged. The substrate and the products (testosterone and androstenedione) in the upper phase were separated by silica gel thin layer chromatography. Detection of the spots and measurement of the radioactivity were performed by a BAS 2000 Bioimage analyzer. The concentration of the test compounds necessary to reduce the concentration of the products by 50% (The concentration in the control group in which no test compound was added was taken as 100%) was calculated, and shown in Table 1.
row,SMILES,IC50 [nM]
1,C(=C\c1ccc2ccccc2c1)/Cc1cccnc1,100
2,C/C(=C\Cn1ccnc1)c1ccc2c(c1)CCCC2,28
3,C(=C\c1ccc2c(c1)CCCC2)/c1ccncc1,190
4,C(=C\c1ccc2ccccc2c1)/Cn1ccnc1,26

# These reach a lower IC50. Values come first.
row,IC50 [nM],SMILES
1,20,C/C(=C\c1ccc2ccccc2c1)Cn1ccnc1
2,13,C/C(=C\Cn1ccnc1)c1ccc2ccccc2c1
